Results on two compounds are retold here after patent US20110015226A1, “Treatment of Energy Utilization Disease” (SUMMIT CORPORATION PLC, priority 2008, published 2011).

Data set [1] has as its system zebrafish larvae. Put plainly: Acute Toxicity assay in zebrafish larvae. The format is in vivo. Conditions: 1 mM, 5 mM, 25 mM, 50 mM, 100 mM, 200 mM, 500 mM aqueous dose, 72-96 hpf. How it is done: The compound of formula (G2) was screened for toxicity liabilities using a validated Acute Toxicity assay. Fertilized eggs were obtained from breeding pairs of adult Tuebingen (Tu) zebrafish and arrayed at the 2-4 cell stage of development into 24-well culture plates containing fresh 0.3× Danieau's solution. Plates were incubated at 28.5° C. in a humidity controlled environment prior to assessment. Stock concentrations of Compound were produced by serial dilution in 100% DMSO (final concentration exposed to larvae, 0.5%). Screening was performed at seven doses (1, 5, 25, 50, 100, 200 and 500 mM) alongside VASTox internal controls and vehicle. Dosing of Compound took place at 72 h post fertilisation (hpf; at which point embryogenesis is complete) with visual assessment of lethality and gross morphology at 96 hpf (24 h incubation). […] were exposed to each dose of Compound giving a total of […] assessed (excluding controls). At 96 hpf, larvae were observed and screened using a dissecting stereomicroscope for the presence or absence of: (1) heartbeat (2) circulation; (3) necrosis; and (4) motility (touch response). If all four criteria were satisfied, a larva would be classified as dead. The compound was screened blind.

Data set [2] deals with iduronidase (Homo sapiens, UniProt P35475). Conditions: Booth et al. (2007) and references therein; cited from earlier work.
In data set [3] the test system is ob/ob mice. Put plainly: Oral glucose tolerance test after 7 days dosing in ob/ob mice. The format is in vivo. On the procedure: The study started with 42 male ob/ob mice, 10 weeks of age. The mice were fed a normal chow diet during the whole study. After 1 week of acclimatization, mice were matched on basis of body weight, plasma glucose and insulin (after 4 h-fasting) and divided in 3 groups of 10 animals (t=0 days). For the next 6 days, mice received vehicle (control group 1) or 5 mg/kg/day (group 2) or 50 mg/kg/day (group 3) of the compound of formula (G2) (test compound) around 12.00 h by gavage (5 ml/kg mouse). On the 7th day, mice were fasted at 8.00 h and received the last gavage (vehicle for group 1 or 5 mg/kg/day, test compound for group 2 or 50 mg/kg/day test compound for group 3) at 12.00 h. At 13.00 h the mice subsequently received a glucose bolus (2 g/kg mouse, 5 ml/kg mouse) by gavage as start of the oral glucose tolerance test (OGTT). Measurement of blood glucose and plasma collection was at t=0 (just before gavage of glucose) and at t=5, 15, 30, 45, 60 and 120 min after glucose bolus. After the OGTT, mice were sacrificed with CO2 and additional blood was collected in heparin-coated tubes via heart puncture (>100 μl plasma was obtained) and heparin-plasma samples were analysed.
On day 0 mice were randomized on body weight and 4 h fasted plasma glucose and insulin levels (table 3.1.a). Twelve out of 42 mice were excluded, to create more homogenous groups with respect to body weight, plasma glucose and insulin.

In data set [4] the test system is ddy mice. Put plainly: Serum insulin levels in ddy mice with or without glucose load. Conditions: 30 minutes. The format is in vivo. How it is done:
7 week old ddy mice (weight 30-31 g) were divided into 4 groups (groups 1 to 4). Each group had 3-4 mice. All test mouse were fasted for 16 hours before being given the test compounds.
Group 1: Control. un-treated mice (without glucose and G2). Group 2: Oral administration of glucose alone. Group 3: Oral administration of G2 alone. Group 4: Oral administration of G2 with glucose.
Serum insulin levels were measured after 30 minutes (see FIG. 2).
FIG. 3 Effects of G2 (BR1) (100 mg/kg body weight) on serum insulin levels.
Serum insulin concentrations of male ddy mouse after 30 minutes later an oral load with or without D-glucose (2.5 g/kg body weight). Each value represents the mean±SEM (n=3-4). * P<0.05, ** P<0.01.

Data set [5] addresses digestive glucosidases. Conditions: Watson et al., 2001; cited from earlier work.
The mark [6] stands for this setting: 5 mg/kg/day or 50 mg/kg/day by gavage, compared to control (vehicle) group.

Sequence of iduronidase (P35475 28-653): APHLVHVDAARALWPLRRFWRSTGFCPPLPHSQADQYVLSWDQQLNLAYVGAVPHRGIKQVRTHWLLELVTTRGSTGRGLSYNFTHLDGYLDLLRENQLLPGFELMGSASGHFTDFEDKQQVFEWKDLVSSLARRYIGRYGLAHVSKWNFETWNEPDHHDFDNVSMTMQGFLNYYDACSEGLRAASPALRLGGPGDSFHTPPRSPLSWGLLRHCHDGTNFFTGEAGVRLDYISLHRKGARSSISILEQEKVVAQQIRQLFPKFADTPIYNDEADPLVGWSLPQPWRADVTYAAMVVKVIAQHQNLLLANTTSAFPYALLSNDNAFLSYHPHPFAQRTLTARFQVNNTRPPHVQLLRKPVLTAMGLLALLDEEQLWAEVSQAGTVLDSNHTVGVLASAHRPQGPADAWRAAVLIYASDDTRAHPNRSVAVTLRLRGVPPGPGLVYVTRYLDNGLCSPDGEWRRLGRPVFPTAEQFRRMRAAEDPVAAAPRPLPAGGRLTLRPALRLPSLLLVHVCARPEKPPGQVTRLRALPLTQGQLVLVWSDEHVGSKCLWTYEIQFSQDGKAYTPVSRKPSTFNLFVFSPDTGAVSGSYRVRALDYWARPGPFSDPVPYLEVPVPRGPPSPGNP

As for `O=C(O)[C@H]1NC[C@H](O)[C@@H](O)[C@@H]1O` [Compound G2, 2S,3R,4R,5S-trihydroxypiperidine-2-carboxylic acid], the “acute toxicity to zebrafish larvae” value in data set [1] is “did not cause acute toxicity”. In addition, the inhibition of iduronidase result in data set [2] was “weak inhibitor”. Moreover, in data set [3] (5 mg/kg and 50 mg/kg groups vs control), the “plasma insulin concentrations 120 min after glucose bolus” value is “significantly increased”. Moreover, in data set [3] (setting [6]), the body weight entry is “not significantly changed” and the food intake result is on record as “not significantly changed”. The “plasma insulin at 15, 30, 45 and 60 min” value in data set [3] (after glucose bolus 2 g/kg, 5 and 50 mg/kg/day groups vs control) was “No significant changes”. Further, in data set [3] (just before oral glucose load, 5 and 50 mg/kg/day groups vs control, reduction not significant), the “plasma insulin levels at 0 min” value was “reduced somewhat”. In addition, the “serum insulin level, G2 with glucose” value in data set [4] (100 mg/kg body weight oral with D-glucose 2.5 g/kg, vs glucose alone) is reported as “much effective than glucose alone”. Also, the “serum insulin level, G2 alone” value in data set [4] (100 mg/kg body weight oral, without glucose, vs un-treated) is listed as “did not affect the insulin level”.

As for `OC[C@H]1NC[C@H](O)[C@@H](O)[C@@H]1O` [DNJ, 1-deoxynojirimycin, reference compound], the “Ki values, digestive glucosidases” value in data set [5] is reported as “low or sub-μM range”.
